This is an account of results in ChEMBL document CHEMBL4507319 (2021).

Assay [1] addresses Calcium/calmodulin-dependent protein kinase type II subunit gamma (Homo sapiens) (UniProt Q13555). Put plainly: CaMKIIgamma(h) Eurofins kinase panel. Particulars: Compound concentration 1.0 uM.
For assay [2], the target named is T1, Activin receptor type-1 (Homo sapiens) (UniProt Q04771).
T1 sequence (whole entry): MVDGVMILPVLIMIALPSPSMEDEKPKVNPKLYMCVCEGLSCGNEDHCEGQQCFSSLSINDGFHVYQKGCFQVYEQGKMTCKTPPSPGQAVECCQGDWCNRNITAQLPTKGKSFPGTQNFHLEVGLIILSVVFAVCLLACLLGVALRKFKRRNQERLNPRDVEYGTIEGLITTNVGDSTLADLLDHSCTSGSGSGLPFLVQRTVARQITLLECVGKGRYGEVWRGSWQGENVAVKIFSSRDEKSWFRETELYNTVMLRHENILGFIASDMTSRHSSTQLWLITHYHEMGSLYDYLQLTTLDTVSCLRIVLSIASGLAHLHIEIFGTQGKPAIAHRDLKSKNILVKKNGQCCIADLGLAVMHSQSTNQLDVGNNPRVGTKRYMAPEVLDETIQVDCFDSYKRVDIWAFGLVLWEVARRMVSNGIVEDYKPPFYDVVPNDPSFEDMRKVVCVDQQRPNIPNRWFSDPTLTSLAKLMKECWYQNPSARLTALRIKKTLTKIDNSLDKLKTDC
Briefly: ALK2(h) Eurofins kinase panel. The conditions noted are these: Compound concentration 1.0 uM.

In assay [3] the target is Serine/threonine-protein kinase 33 (Homo sapiens) (UniProt Q9BYT3). Put plainly: STK33(h) Eurofins kinase panel. The conditions noted are these: Compound concentration 1.0 uM.
The target in assay [4] is Misshapen-like kinase 1 (Homo sapiens) (UniProt Q8N4C8). Put plainly: MINK(h) Eurofins kinase panel. The conditions noted are these: Compound concentration 1.0 uM.
For assay [5], the target named is Hepatocyte growth factor receptor (Homo sapiens) (UniProt P08581). Particulars: Compound concentration 1.0 uM.
The target in assay [6] is Eukaryotic translation initiation factor 2-alpha kinase 1 (Homo sapiens) (UniProt Q9BQI3). Put plainly: HRI(h) Eurofins kinase panel. Particulars: Compound concentration 1.0 uM.
For another assay, the system named is Daudi. Put plainly: Daudi cell line Proliferation assay. Type of assay: functional, Homo sapiens. The conditions noted are these: time 3 day.
In assay [7] the target is T2, Bone morphogenetic protein receptor type-2 (Homo sapiens) (UniProt Q13873).
T2 sequence (whole entry): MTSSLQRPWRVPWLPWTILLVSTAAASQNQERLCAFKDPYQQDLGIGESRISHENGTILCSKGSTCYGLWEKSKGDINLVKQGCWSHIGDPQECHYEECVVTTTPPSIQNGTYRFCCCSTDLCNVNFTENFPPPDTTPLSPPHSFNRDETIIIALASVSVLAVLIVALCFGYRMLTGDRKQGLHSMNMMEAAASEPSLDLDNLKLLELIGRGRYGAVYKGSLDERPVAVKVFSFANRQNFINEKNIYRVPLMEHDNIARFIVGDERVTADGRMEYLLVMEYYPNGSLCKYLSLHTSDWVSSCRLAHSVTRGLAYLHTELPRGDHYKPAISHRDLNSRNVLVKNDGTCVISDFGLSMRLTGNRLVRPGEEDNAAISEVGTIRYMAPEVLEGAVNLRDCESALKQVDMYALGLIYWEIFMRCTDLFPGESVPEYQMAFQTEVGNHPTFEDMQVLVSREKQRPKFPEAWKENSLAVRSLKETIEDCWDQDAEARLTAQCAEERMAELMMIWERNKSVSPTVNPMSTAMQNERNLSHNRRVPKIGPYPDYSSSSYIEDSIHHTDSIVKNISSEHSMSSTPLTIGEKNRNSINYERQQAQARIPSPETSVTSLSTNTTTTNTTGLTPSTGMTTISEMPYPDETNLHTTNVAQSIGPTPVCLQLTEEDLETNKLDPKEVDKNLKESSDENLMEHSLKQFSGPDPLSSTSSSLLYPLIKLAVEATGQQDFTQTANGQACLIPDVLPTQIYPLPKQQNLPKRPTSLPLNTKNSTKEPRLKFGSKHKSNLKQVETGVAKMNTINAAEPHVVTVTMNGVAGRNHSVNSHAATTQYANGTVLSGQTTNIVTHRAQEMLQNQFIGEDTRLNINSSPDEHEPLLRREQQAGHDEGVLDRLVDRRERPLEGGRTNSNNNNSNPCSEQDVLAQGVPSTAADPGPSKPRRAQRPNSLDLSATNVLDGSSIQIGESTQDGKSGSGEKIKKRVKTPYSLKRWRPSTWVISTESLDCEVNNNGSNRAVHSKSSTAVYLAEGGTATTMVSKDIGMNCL
Briefly: BMPR2(h) Eurofins kinase panel. Particulars: Compound concentration 1.0 uM.

Assay [8] deals with Serine/threonine-protein kinase SIK1 (Homo sapiens) (UniProt P57059). Briefly: SIK(h) Eurofins kinase panel. Particulars: Compound concentration 1.0 uM.
Assay [9] has as its target CDK9/cyclin T1 (Homo sapiens) (UniProt O60563+P50750). Briefly: CDK9/cyclin T1(h) Eurofins kinase panel. The format is protein-complex assay. The conditions noted are these: Compound concentration 1.0 uM.
The subject of the next assay is A549. Put plainly: A549 cell line Proliferation assay. Type of assay: functional, Homo sapiens. Particulars: time 3 day.
The target in assay [10] is Tau-tubulin kinase 1 (Homo sapiens) (UniProt Q5TCY1). Put plainly: TTBK1(h) Eurofins kinase panel. The conditions noted are these: Compound concentration 1.0 uM.
The test system of another assay is NCI-H292. Put plainly: NCI- H292 cell line Proliferation assay. Type of assay: functional, Homo sapiens. Particulars: time 3 day.
For assay [11], the target named is T3, Rhodopsin kinase GRK1 (Homo sapiens) (UniProt Q15835).
T3 sequence (whole entry): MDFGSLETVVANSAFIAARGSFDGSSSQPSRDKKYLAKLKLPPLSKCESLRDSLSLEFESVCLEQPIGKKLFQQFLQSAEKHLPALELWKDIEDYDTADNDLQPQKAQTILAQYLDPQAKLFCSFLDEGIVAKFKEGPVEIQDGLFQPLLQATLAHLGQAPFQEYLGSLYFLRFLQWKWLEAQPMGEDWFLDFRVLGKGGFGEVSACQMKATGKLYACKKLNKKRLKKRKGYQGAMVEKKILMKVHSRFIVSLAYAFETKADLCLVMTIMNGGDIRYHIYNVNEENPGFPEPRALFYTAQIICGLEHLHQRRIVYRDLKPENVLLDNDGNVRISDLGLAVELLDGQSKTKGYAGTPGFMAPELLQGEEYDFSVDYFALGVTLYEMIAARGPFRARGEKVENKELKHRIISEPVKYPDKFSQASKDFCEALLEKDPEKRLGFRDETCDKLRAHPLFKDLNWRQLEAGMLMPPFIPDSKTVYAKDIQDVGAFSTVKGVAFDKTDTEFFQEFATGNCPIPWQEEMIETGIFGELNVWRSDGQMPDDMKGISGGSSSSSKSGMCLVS
Put plainly: GRK1(h) Eurofins kinase panel. Particulars: Compound concentration 1.0 uM.

Assay [12] addresses Insulin receptor-related protein (Homo sapiens) (UniProt P14616). Briefly: IRR(h) Eurofins kinase panel. The conditions noted are these: Compound concentration 1.0 uM.
Assay [13] deals with Serine/threonine-protein kinase 35 (Homo sapiens) (UniProt Q8TDR2). Put plainly: CLIK1(h) Eurofins kinase panel. Particulars: Compound concentration 1.0 uM.
Assay [14] concerns the target Homeodomain-interacting protein kinase 2 (Homo sapiens) (UniProt Q9H2X6). Briefly: HIPK2(h) Eurofins kinase panel. Particulars: Compound concentration 1.0 uM.
The target in assay [15] is Protein kinase C theta type (Homo sapiens) (UniProt Q04759). The conditions noted are these: Compound concentration 1000.0 nM.
Sequence of Protein kinase C theta type (Homo sapiens) (Q04759 whole entry, looked up): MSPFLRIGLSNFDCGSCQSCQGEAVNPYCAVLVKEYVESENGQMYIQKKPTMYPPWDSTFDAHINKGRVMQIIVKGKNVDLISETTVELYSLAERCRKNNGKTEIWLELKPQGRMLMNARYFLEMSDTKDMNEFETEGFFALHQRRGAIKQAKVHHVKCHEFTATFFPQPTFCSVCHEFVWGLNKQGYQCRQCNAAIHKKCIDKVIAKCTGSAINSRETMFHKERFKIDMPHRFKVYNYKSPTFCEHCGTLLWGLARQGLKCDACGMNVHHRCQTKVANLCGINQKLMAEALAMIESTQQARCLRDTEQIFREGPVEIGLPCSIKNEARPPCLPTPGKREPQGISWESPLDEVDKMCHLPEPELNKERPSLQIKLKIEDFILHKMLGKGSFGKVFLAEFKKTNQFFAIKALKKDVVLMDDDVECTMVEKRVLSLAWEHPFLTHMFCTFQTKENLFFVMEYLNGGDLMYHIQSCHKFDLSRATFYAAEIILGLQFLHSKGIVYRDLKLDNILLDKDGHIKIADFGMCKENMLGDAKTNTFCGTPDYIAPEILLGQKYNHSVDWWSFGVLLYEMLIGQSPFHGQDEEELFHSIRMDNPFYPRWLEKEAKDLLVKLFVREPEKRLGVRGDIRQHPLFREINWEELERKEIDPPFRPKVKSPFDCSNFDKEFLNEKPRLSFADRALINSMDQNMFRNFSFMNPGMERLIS

Sequence of Homeodomain-interacting protein kinase 2 (Homo sapiens) (Q9H2X6 whole entry, looked up): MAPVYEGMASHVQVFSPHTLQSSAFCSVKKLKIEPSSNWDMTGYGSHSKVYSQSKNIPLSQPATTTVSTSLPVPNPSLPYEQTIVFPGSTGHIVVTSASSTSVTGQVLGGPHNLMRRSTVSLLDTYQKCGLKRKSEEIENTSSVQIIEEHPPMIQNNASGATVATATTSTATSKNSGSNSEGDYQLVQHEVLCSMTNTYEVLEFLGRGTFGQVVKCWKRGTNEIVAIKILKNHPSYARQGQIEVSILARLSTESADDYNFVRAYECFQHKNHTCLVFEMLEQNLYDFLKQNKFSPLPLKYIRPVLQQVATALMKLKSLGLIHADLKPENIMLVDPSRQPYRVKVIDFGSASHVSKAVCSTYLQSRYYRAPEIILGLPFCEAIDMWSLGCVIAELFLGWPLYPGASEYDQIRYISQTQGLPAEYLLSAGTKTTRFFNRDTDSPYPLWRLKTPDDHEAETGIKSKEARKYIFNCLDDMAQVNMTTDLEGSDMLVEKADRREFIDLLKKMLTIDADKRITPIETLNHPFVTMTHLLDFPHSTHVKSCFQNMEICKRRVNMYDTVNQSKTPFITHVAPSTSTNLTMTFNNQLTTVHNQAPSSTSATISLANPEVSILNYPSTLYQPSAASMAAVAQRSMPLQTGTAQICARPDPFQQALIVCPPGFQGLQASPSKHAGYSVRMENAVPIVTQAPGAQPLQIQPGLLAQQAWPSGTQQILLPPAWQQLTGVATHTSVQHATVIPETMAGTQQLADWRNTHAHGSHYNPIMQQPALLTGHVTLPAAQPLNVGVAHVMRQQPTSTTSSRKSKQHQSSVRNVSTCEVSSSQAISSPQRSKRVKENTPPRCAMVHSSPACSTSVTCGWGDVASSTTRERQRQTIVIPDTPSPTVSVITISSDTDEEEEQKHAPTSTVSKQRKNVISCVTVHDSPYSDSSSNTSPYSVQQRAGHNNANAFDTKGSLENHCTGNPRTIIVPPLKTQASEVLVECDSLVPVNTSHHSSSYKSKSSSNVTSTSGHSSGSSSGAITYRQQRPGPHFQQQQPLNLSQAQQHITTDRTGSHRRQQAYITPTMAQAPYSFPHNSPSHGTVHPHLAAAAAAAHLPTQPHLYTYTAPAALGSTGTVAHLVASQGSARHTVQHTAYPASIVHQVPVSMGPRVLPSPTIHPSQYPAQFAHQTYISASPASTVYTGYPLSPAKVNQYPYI
Sequence of Calcium/calmodulin-dependent protein kinase type II subunit gamma (Homo sapiens) (Q13555 whole entry): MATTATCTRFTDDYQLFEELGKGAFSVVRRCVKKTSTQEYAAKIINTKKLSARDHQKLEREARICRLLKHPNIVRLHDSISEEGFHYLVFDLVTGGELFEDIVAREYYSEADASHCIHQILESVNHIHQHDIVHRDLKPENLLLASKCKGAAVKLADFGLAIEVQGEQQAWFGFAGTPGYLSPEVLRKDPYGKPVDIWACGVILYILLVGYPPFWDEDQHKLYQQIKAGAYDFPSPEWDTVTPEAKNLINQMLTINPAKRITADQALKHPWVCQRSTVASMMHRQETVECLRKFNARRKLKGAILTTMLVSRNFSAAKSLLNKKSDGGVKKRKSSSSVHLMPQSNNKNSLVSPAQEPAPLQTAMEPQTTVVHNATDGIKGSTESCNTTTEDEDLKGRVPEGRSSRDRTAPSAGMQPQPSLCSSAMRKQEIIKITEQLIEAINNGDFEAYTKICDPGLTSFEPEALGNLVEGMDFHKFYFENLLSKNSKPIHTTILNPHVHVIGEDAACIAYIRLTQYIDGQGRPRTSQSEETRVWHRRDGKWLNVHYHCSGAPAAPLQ
Sequence of Hepatocyte growth factor receptor (Homo sapiens) (P08581 whole entry): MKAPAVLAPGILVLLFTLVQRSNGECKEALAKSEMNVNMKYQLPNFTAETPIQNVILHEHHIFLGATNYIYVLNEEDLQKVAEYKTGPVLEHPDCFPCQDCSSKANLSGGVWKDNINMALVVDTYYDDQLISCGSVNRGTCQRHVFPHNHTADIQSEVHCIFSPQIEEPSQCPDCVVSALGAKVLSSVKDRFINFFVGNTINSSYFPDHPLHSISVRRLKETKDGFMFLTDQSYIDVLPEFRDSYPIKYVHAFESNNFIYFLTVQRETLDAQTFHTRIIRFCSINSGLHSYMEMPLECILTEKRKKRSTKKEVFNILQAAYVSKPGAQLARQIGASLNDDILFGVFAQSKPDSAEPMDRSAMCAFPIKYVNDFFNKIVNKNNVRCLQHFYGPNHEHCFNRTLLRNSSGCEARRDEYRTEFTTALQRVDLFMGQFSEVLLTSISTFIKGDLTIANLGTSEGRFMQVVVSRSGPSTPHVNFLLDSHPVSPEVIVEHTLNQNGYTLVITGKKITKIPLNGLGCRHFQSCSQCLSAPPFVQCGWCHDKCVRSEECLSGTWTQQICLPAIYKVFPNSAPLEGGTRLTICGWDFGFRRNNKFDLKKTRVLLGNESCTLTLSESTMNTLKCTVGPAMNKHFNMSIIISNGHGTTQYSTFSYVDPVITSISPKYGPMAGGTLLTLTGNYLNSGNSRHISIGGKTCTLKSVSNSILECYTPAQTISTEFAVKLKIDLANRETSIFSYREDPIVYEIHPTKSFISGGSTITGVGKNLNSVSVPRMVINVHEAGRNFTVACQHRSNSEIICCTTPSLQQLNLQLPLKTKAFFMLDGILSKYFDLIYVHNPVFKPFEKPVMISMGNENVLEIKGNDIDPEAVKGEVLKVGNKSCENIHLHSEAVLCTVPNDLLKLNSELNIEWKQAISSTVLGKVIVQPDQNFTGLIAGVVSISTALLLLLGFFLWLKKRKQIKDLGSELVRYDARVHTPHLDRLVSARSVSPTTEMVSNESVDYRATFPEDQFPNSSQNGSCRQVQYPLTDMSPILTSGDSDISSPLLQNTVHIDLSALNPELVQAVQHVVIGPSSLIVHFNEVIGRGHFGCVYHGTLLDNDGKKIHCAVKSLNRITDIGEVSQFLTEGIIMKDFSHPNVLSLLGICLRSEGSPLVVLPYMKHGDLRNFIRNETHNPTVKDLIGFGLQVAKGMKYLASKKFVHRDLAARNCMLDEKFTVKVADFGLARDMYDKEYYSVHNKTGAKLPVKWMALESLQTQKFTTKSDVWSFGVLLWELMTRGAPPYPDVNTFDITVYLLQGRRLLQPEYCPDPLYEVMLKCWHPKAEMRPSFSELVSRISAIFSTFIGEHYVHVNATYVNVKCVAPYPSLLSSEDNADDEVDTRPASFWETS
Sequence of Serine/threonine-protein kinase 35 (Homo sapiens) (Q8TDR2 whole entry): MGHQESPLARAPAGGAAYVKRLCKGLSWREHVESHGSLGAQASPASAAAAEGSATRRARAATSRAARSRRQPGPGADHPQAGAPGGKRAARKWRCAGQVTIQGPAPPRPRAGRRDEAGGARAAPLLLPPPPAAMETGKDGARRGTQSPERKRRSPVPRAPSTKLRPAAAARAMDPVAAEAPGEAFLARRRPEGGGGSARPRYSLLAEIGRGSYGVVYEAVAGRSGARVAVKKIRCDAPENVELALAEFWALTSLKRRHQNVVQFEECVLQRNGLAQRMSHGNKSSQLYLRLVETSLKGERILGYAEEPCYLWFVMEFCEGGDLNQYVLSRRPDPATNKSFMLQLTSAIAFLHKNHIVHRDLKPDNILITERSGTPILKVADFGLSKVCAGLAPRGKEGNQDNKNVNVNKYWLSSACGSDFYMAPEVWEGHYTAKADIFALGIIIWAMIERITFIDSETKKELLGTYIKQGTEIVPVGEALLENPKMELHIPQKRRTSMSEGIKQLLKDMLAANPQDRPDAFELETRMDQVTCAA
Sequence of Eukaryotic translation initiation factor 2-alpha kinase 1 (Homo sapiens) (Q9BQI3 whole entry): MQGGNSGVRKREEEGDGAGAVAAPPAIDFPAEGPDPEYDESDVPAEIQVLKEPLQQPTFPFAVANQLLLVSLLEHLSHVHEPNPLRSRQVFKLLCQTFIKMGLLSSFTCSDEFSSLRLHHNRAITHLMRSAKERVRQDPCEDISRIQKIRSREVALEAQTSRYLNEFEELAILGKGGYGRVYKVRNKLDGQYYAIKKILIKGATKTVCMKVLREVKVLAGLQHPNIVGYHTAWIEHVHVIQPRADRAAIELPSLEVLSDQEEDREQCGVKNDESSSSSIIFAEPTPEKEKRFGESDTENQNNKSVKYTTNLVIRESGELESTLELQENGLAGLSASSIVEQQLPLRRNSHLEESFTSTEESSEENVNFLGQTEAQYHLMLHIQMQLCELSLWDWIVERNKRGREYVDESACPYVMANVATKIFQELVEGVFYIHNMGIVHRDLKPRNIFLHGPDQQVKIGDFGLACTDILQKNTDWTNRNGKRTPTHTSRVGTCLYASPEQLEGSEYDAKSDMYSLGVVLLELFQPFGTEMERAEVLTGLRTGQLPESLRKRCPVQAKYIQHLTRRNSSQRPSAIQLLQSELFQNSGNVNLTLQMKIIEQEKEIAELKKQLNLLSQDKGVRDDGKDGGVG

Regarding `CCc1ccccc1C(=O)Nc1n[nH]c2c(C)c(F)c(C3C(C#N)=C(C)N(C)C(C)=C3C#N)cc12` [BAY-3827], the % residual kinase activity in [1] is 79%; in assay [2] it was 109%; in [3], 55%; in assay [4], 99%; in assay [5], 1%; in assay [6], 100%. Also, the % residual kinase activity was 104% in assay [7]; 86% in assay [8]; 91% in assay [9]; 104% in [10]; 72% in [11]; 101% in assay [12]. In addition, the % residual kinase activity was 80% in assay [13] and 100% in [14]. For the same compound, the “Cell Proliferation IC50” value is 22.9 µM in the assay with Daudi, 25.8 µM with A549 and 17.1 µM in the assay on NCI-H292.

In the case of `CC1=C(C#N)C(c2ccc3c(c2)c(NC(=O)c2ccccc2C)nn3C)C(C#N)=C(C)N1` [BAY-974], in [15], the residual activity (in general, the activity still measured, relative to the control) was 55%.
